Measurements: US12522877B2, “Early detection of drug-resistant mycobacterium tuberculosis” (The Translational Genomics Research Institute, priority 2020, dated 2026)

How the values were obtained:
[1] = in vivo; cited from earlier work
[2] = system: M. tuberculosis isolates; assay type: cell-based, Mycobacterium tuberculosis
[3] = system: M. tuberculosis isolates; assay type: cell-based, Mycobacterium tuberculosis; remark: listed apart in the source
[4] = human, in vivo

Compound | Phenotypic DST [3] | adverse effect for which the drug was stopped [4] | also measured
COc1nc2ccc(Br)cc2cc1[C@@H](c1ccccc1)[C@@](O)(CCN(C)C)c1cccc2ccccc12 [bedaquiline] |  |  | half-life [1]: 5.5 months; acquired resistance to bedaquiline [2]: 39%
CC1COc2c(N3CCN(C)CC3)c(F)cc3c(=O)c(C(=O)O)cn1c23 (stereo not drawn) [Ofloxacin] | S and R |  | 
NNC(=O)c1ccncc1 [Isoniazid] |  | vision problems | 
NCC[C@H](O)C(=O)N[C@@H]1C[C@H](N)[C@@H](O[C@H]2O[C@H](CN)[C@@H](O)[C@H](O)[C@H]2O)[C@H](O)[C@H]1O[C@H]1O[C@H](CO)[C@@H](O)[C@H](N)[C@H]1O [Amikacin] | S |  | Phenotypic susceptibility [3]: phenotypically susceptible; Routine phenotypic DST [3]: susceptible
CC[C@@H](CO)NCCN[C@@H](CC)CO [ethambutol] |  | persistent arthralgias and changes in vision | 
NC(=O)c1cnccn1 [Pyrazinamide] |  | persistent arthralgias and changes in vision | 
